Laboratory results taken from patent publication EP3079693B1 (priority 2013, dated 2015).

Experiments:
[1] = test system: influenza A/Puerto Rico/8/34 (H1N1) virus; format: cell-based
[2] = test system: influenza A/WS/1933 (H1N1); format: cell-based
[3] = test system: H3N2 serotype A/Aichi/2/68; format: cell-based, influenza A
influenza A = format: cell-based
[4] = test system: influenza A/Puerto Rico/8/34; test: In vivo survival study after live infection; set-up: species or system Balb/C mice; conditions: 3 doses, 2xLD50 intranasal challenge, survival = 70% or more of starting weight
Experimental: In Vivo Survival Studies: Groups of 5 Balb/C mice ([…]) were weighed prior to the start of study and injected intravenously at the base of the tail with formulations containing A0435 at doses of 3.17, 1, or 0 mg/kg in phosphate buffered saline containing 3% w/v mouse serum albumin. Four hours later, these mice were challenged intranasally with 2xLD50 of influenza A/Puerto Rico/8/34 under anesthesia. Identical doses of A0435 were administered 24 and 48 hours after the initial dose administration and animal weights were monitored daily. Surviving animals were defined as those who maintained 70% or more of their starting weight.

influenza B = test: Inhibition of influenza B (method not described)
[5] = test system: liver-derived HepG2 cells
[6] = test system: primary renal proximal tubule epithelial cells (or RPTEC)
[7] = molecular target: influenza A RNA-dependent RNA polymerase (Influenza A virus, UniProt P03428+P03431+P03433); test: cell-based
[8] = test system: constitutive gene expression; test: Counter screen: separate reporter system with cell death-activated reporter construct (constitutive gene expression); conditions: counter-screen assay, dose titration

CCc1c(C)nc2cc(-c3ccc(OC)c(OC)c3)nn2c1NCCc1ccccn1 [A0435, 2-(3,4-dimethoxyphenyl)-6-ethyl-5-methyl-N-[2(pyridin-2-yl)ethyl]pyrazolo[1,5-a]pyrimidin-7-amine]
concentrations with significant antiviral activity [1]: > 4 µM | inhibition of virus [2]: significantly inhibited | inhibition of virus [3]: significantly inhibited | cytopathic effects characteristic of influenza A infection (influenza A): little to no signs of the cytopathic effects | animals survived infection at day 7 post-infection ([4]; 1 mg/kg intravenously): 2/5 | animals survived infection at day 7 post-infection ([4]; 3.17 mg/kg intravenously): 3/5 | inhibition of influenza B (influenza B): inhibitable | tolerability in cellular model of toxicity [5]: well-tolerated | tolerability in cellular model of toxicity [6]: well-tolerated | IC50 [7]: ~3 µM | inhibitory impact on the level of constitutive gene expression [8]: no visible inhibitory impact
